Assay results as given in patent US20250277001A1, “PEPTIDE DERIVATIVES AND RELATED USES AS OREXIN AGONISTS” (CENTESSA PHARMACEUTICALS (UK) LIMITED, priority 2022, published 2025).
Read-outs that look alike come from different tables or passages of the source. Where a SMILES comes first, the peptide text is derived from it. [ ]: non-standard residue; d: D form. The star is where a group is joined. Malonyl(2,2-Me2,histaminyl) = CC(C)(C(=O)NCCc1cnc[nH]1)C(=O)*; d(hArg) = N=C(N)NCCCC[C@@H](N)C(=O)O; Gly(NCH2CH2Ph) = O=C(O)CNCCc1ccccc1; Hyp = O=C(O)[C@@H]1C[C@@H](O)CN1; hArg = N=C(N)NCCCC[C@H](N)C(=O)O; NMeN = CN[C@@H](CC(N)=O)C(=O)O; Aoc(2) = CCCCCC[C@H](N)C(=O)O; Phg = N[C@H](C(=O)O)c1ccccc1; Nle = CCCC[C@H](N)C(=O)O

What was measured:
[1] = molecular target: T1, human orexin type 2 receptor (hOX2R) (Homo sapiens, UniProt O43614); assay: Measurement of orexin type 2 receptor agonist activity (CHO cells, FLIPR TETRA intracellular Ca2+); assay type: cell-based
T1 construct: expressed in transfected cells
T1 sequence (O43614 1-444): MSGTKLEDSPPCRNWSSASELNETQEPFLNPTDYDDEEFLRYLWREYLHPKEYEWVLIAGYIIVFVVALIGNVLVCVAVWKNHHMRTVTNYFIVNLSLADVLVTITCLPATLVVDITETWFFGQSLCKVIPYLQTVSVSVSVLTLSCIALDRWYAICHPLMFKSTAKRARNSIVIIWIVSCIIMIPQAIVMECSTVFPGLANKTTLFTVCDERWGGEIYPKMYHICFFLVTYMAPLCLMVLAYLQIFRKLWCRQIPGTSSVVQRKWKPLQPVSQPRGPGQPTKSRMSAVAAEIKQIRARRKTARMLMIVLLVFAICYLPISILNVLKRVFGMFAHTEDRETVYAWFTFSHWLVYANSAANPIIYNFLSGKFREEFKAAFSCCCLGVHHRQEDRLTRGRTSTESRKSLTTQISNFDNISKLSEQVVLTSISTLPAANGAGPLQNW
Excerpt: (§1) In some embodiments, the assay uses cells stably expressing either human orexin type 2 or human orexin type 1 receptor. In some embodiments, the cells are obtained by inserting the Orexin receptor cDNA into pcDNA3.1(+) plasmid vector, identifying clones by G418 drug resistance selection, and/or growing a single clone for OX2R-CHO and OX1R-CHO in bulk. In some embodiments, the assay is detected using Fluorescent Imaging Plate Reader TETRA (FLIPR TETRA: manufactured by Molecular Devices). In some embodiments, the agonist activity of the test peptide is calculated assuming that the fluorescence value of the well containing only the dilution buffer is 0% and the fluorescence value of the well containing 10 nM human orexin A (Tocris) buffer is 100%.
(§2) Stable cell line generation. Obtainment of cells stably expressing either human orexin type 2 or human orexin type 1 receptor: to obtain a stable cell line the Orexin receptor cDNA was inserted into pcDNA3.1(+) plasmid vector and clones identified by G418 drug resistance selection. […] A single clone for OX2R-CHO and OX1R-CHO were grown in bulk and frozen to generate a cell bank for routine screening.
(§3) Measurement of orexin type 2 receptor agonist activity. Chinese hamster ovary (CHO) cells expressing human orexin type 2 receptor (hOX2R) seeded in each well of 384 well black clear bottom plates (BD Flacon) at 10,000 cells per well and cultured for 24 h in an Ham's F12 (Gibco) medium containing 10% fetal calf serum (Sigma Aldrich) under the conditions of 37° C., 5% CO2. After removal of the medium, 50 μL of assay buffer 1 (0.1% bovine serum albumin (Sigma Aldrich), 20 mM HEPES (Molecular Dimensions), […] probenecid (Sigma Aldrich), 1× Calcium 5 dye (Molecular Devices) in Hank's balanced salt solution (Invitrogen)) was added, and the cells were incubated for 60 min under the conditions of 37° C., 5% CO2. A test peptide was dissolved in dimethyl sulfoxide (Sigma Aldrich) to 1 mM, and then diluted with assay buffer 2 (20 mM HEPES, Hank's balanced salt solution, 0.1% bovine serum albumin). For the reaction, a test peptide solution (10 μl) was added using Fluorescent Imaging Plate Reader TETRA (FLIPR TETRA: manufactured by Molecular Devices), a fluorescence value (excitation wavelength 488 nm, measurement wavelength 570 nm) of each well was measured every one second for 2 min, and the agonist activity was determined using the area of the fluorescence value as an indicator of intracellular Ca^2+ concentration. The agonist activity of the test peptide was calculated assuming that the fluorescence value of the well added with only the dilution buffer was 0% and the fluorescence value of the well added with 10 nM human orexin A (Tocris) buffer was 100%. As used herein, Emax indicates the value at 1 μM concentration when orexin A is converted to a full agonist (maximum value of agonist activity: 100%).

[2] = molecular target: T2, human orexin type 1 receptor (hOX1R) (Homo sapiens, UniProt O43613); assay: Measurement of orexin type 1 receptor agonist activity (CHO cells, FLIPR TETRA intracellular Ca2+); assay type: cell-based
T2 construct: expressed in transfected cells
T2 sequence (O43613 1-425): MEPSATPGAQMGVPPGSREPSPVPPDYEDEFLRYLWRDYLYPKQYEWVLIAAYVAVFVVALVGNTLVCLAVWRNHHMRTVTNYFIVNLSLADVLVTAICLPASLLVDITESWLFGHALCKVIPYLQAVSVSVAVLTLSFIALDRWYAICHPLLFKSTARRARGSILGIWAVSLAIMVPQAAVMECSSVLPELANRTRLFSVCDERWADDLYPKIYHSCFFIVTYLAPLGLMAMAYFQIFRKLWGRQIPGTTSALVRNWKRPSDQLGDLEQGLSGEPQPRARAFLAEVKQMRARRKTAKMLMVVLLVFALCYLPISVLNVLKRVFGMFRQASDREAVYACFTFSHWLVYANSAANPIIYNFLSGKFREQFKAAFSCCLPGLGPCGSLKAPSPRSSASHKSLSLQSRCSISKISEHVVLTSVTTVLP
Excerpt: as §1, §2
as §3, with “type 1” for “type 2”, “receptor (hOX1R) were” for “receptor (hOX2R)”

[3] = CHO cells expressing hOX2R, Ca2+ fluorescence, read-out: hOX2 pEC50 (converted)
[4] = CHO cells expressing hOX1R, Ca2+ fluorescence, read-out: hOX1 pEC50 (converted)

EC50 [1, 3] | EC50 [2, 4] | Structure (SMILES) | EC50 [1] | EC50 [2]
– | – | CCCCCC[C@H](NC(=O)[C@@H](NC(=O)[C@H](CC(C)C)NC(=O)[C@@H](NC(=O)CNC(=O)[C@@H](NC(=O)[C@H](C)NC(=O)[C@@H]1C[C@@H](O)CN1C(=O)[C@H](CC(N)=O)N(C)C(=O)CN(CCc1ccccc1)C(=O)[C@H](CCCNC(=N)N)NC(=O)[C@@H]1CCCN1C(=O)[C@@H](CCCCNC(=N)N)NC(=O)[C@@H](CCC(N)=O)NC(=O)C(C)(C)C(=O)NCCc1cnc[nH]1)c1ccccc1)[C@@H](C)CC)[C@@H](C)O)C(N)=O [compound 7] ({Malonyl(2,2-Me2,histaminyl)}-[dQ][d(hArg)]PR[Gly(NCH2CH2Ph)][NMeN][Hyp]A[Phg]GILT[Aoc(2)]-NH2) | < 0.1 nM | > 10 nM
– | – | CCCCCC[C@H](NC(=O)[C@@H](NC(=O)[C@H](CC(C)C)NC(=O)[C@@H](NC(=O)CNC(=O)[C@@H](NC(=O)[C@H](C)NC(=O)[C@@H]1C[C@@H](O)CN1C(=O)[C@H](CC(N)=O)N(C)C(=O)CN(CCc1ccccc1)C(=O)[C@H](CCCCN)NC(=O)[C@@H]1CCCN1C(=O)[C@H](CCCCNC(=N)N)NC(=O)[C@H](CCC(N)=O)NC(=O)C(C)(C)C(=O)NCCc1cnc[nH]1)c1ccccc1)[C@@H](C)CC)[C@@H](C)O)C(N)=O [compound 8] ({Malonyl(2,2-Me2,histaminyl)}-Q[hArg]PK[Gly(NCH2CH2Ph)][NMeN][Hyp]A[Phg]GILT[Aoc(2)]-NH2) | < 0.1 nM | > 10 nM
< 0.1 nM | > 10 nM | CCCCCC[C@H](NC(=O)[C@@H](NC(=O)[C@H](CC(C)C)NC(=O)[C@@H](NC(=O)CNC(=O)[C@@H](NC(=O)[C@H](C)NC(=O)[C@@H]1C[C@@H](O)CN1C(=O)[C@H](CC(N)=O)NC(=O)CN(CCc1ccccc1)C(=O)[C@H](CCCNC(=N)N)NC(=O)[C@@H]1C[C@@H](O)CN1C(=O)[C@@H]1C[C@@H](O)CN1C(=O)[C@@H]1C[C@@H](O)CN1)c1ccccc1)[C@@H](C)CC)[C@@H](C)O)C(N)=O [compound 9] (H-[Hyp][Hyp][Hyp]R[Gly(NCH2CH2Ph)]N[Hyp]A[Phg]GILT[Aoc(2)]-NH2) | – | –
< 0.1 nM | > 10 nM | CCCC[C@H](NC(=O)[C@@H](NC(=O)[C@H](CC(C)C)NC(=O)[C@@H](NC(=O)CNC(=O)[C@@H](NC(=O)[C@H](C)NC(=O)[C@H](Cc1c[nH]cn1)NC(=O)[C@H](CC(N)=O)NC(=O)CNC(=O)[C@H](CO)NC(=O)[C@H](C)NC(=O)[C@H](Cc1c[nH]c2ccccc12)NC(=O)[C@@H](CC(C)C)NC(=O)[C@@H](N)Cc1ccccc1)c1ccccc1)[C@@H](C)CC)[C@@H](C)O)C(N)=O [compound 10] (H-F[dL]WASGNHA[Phg]GILT[Nle]-NH2) | – | –
< 0.1 nM | > 10 nM | CCCC[C@H](NC(=O)[C@@H](NC(=O)[C@H](CC(C)C)NC(=O)[C@@H](NC(=O)CNC(=O)[C@@H](NC(=O)[C@H](C)NC(=O)[C@H](Cc1c[nH]cn1)NC(=O)[C@H](CC(N)=O)NC(=O)CNC(=O)[C@H](CO)NC(=O)[C@H](C)NC(=O)[C@H](Cc1c[nH]c2ccccc12)NC(=O)[C@@H](CC(C)C)NC(=O)[C@@H](N)CC(C)C)c1ccccc1)[C@@H](C)CC)[C@@H](C)O)C(N)=O [compound 11] (H-L[dL]WASGNHA[Phg]GILT[Nle]-NH2) | – | –
< 0.1 nM | > 10 nM | CCCC[C@H](NC(=O)[C@@H](NC(=O)[C@H](CC(C)C)NC(=O)[C@@H](NC(=O)CNC(=O)[C@H](C)NC(=O)[C@H](C)NC(=O)[C@H](Cc1c[nH]cn1)NC(=O)[C@H](CC(N)=O)NC(=O)CNC(=O)[C@H](CO)NC(=O)[C@@H](C)NC(=O)[C@@H](Cc1ccccc1)NC(=O)[C@H](CC(C)C)NC(=O)[C@@H](N)CC(C)C)[C@@H](C)CC)[C@@H](C)O)C(N)=O [compound 12] (H-LL[dF][dA]SGNHAAGILT[Nle]-NH2) | – | –
< 0.1 nM | > 10 nM | CCCC[C@H](NC(=O)[C@@H](NC(=O)[C@H](CC(C)C)NC(=O)[C@@H](NC(=O)CNC(=O)[C@H](C)NC(=O)[C@H](C)NC(=O)[C@H](Cc1c[nH]cn1)NC(=O)[C@H](CC(N)=O)NC(=O)CNC(=O)[C@H](CO)NC(=O)[C@@H](C)NC(=O)[C@@H](Cc1ccccc1)NC(=O)[C@H](CC(C)C)NC(=O)[C@@H](N)Cc1ccccc1)[C@@H](C)CC)[C@@H](C)O)C(N)=O [compound 13] (H-FL[dF][dA]SGNHAAGILT[Nle]-NH2) | – | –
< 0.1 nM | > 10 nM | CCCC[C@H](NC(=O)[C@@H](NC(=O)[C@H](CC(C)C)NC(=O)[C@@H](NC(=O)CNC(=O)[C@H](C)NC(=O)[C@H](C)NC(=O)[C@H](Cc1c[nH]cn1)NC(=O)[C@H](CC(N)=O)NC(=O)CNC(=O)[C@H](CO)NC(=O)[C@@H](C)NC(=O)[C@@H](Cc1ccccc1)NC(=O)[C@@H](CC(C)C)NC(=O)[C@@H](N)CC(C)C)[C@@H](C)CC)[C@@H](C)O)C(N)=O [compound 14] (H-L[dL][dF][dA]SGNHAAGILT[Nle]-NH2) | – | –
< 0.1 nM | 1 to 10 nM | CCCCCC[C@H](NC(=O)[C@@H](NC(=O)[C@H](CC(C)C)NC(=O)[C@@H](NC(=O)CNC(=O)[C@@H](NC(=O)[C@H](C)NC(=O)[C@@H]1C[C@@H](O)CN1C(=O)[C@H](CC(N)=O)NC(=O)CN(CCc1ccccc1)C(=O)[C@H](CCCNC(=N)N)NC(=O)[C@H](CCCNC(=N)N)NC(=O)[C@@H]1C[C@@H](O)CN1C(=O)[C@@H]1C[C@@H](O)CN1C(=O)[C@@H]1C[C@@H](O)CN1)c1ccccc1)[C@@H](C)CC)[C@@H](C)O)C(N)=O [compound 15] (H-[Hyp][Hyp][Hyp]RR[Gly(NCH2CH2Ph)]N[Hyp]A[Phg]GILT[Aoc(2)]-NH2) | – | –
